Biological target: MMP-13CD (catalytic domain of collagenase 3) (Homo sapiens, UniProt P45452)
Assay: Thiopeptolide hydrolysis assay, MMP-13;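 further: inhibition of enzymatic thiopeptolide substrate cleavage (100 µM) in pH 6.0 MES buffer with CaCl2 and DTNB, comparing hydrolysis with versus without inhibitor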

Row | IC50 (MMP13 IC50 μM, Table IVb) | IC50 (MMP 13 IC50 μM, Table III) | SMILES
1 | 1.45 µM |  | COc1ccc(CNC(=O)c2ccc3c(c2)c(=O)n(CCn2cccc2)c(=O)n3C)cc1
2 | 0.025 µM |  | COc1ccc(CNC(=O)c2ccc3c(c2)c(=O)n(Cc2ccc(-c4ccccc4-c4nnn[nH]4)cc2)c(=O)n3C)cc1
3 | 0.24 µM |  | Cn1c(=O)n(CC=Cc2ccncc2)c(=O)c2cc(C(=O)NCc3ccncc3)ccc21
4 | 0.0009 µM |  | COc1ccc(CNC(=O)c2ccc3c(c2)c(=O)n(Cc2ccc(-c4nn[nH]n4)cc2)c(=O)n3C)cc1
5 | 0.0015 µM |  | COc1ccc(CNC(=O)c2ccc3c(c2)c(=O)n(Cc2ccc(-c4noc(=O)[nH]4)cc2)c(=O)n3C)cc1
6 | 0.051 µM |  | Cn1c(=O)n(Cc2ccncc2)c(=O)c2cc(C(=O)NCc3ccc(O)cc3)ccc21
7 | 0.68 µM |  | C#CCn1c(=O)c2cc(C(=O)NCc3ccc(OC)cc3)ccc2n(C)c1=O
8 | 0.43 µM |  | COc1ccc(CNC(=O)c2ccc3c(c2)c(=O)n(Cc2ccccn2)c(=O)n3C)cc1
9 | 0.046 µM |  | COc1ccc(CNC(=O)c2ccc3c(c2)c(=O)n(Cc2cccnc2)c(=O)n3C)cc1
10 | 9.4 µM |  | CC(c1cccc2ccccc12)n1c(=O)c2cc(C(=O)NCc3ccc4c(c3)OCO4)ccc2n(C)c1=O (centres unmarked)
11 | 0.2 µM |  | COc1ccc(CNC(=O)c2ccc3c(c2)c(=O)n(CC=C(C)C)c(=O)n3C)cc1
12 | 0.0023 µM |  | COc1ccc(CNC(=O)c2ccc3c(c2)c(=O)n(Cc2ccc(-c4nnnn4C)cc2)c(=O)n3C)cc1
13 | 0.004 µM |  | COc1ccc(CNC(=O)c2ccc3c(c2)c(=O)n(Cc2ccc(-c4nnn(C)n4)cc2)c(=O)n3C)cc1
14 | 0.0029 µM |  | COc1ccc(CNC(=O)c2ccc3c(c2)c(=O)n(Cc2ccc(-c4nc(C)no4)cc2)c(=O)n3C)cc1
15 | 0.0049 µM |  | COc1ccc(CNC(=O)c2ccc3c(c2)c(=O)n(Cc2ccc(-c4noc(C)n4)cc2)c(=O)n3C)cc1
16 | 0.0064 µM |  | CNC(=O)c1ccc(Cn2c(=O)c3cc(C(=O)NCc4ccc(OC)cc4)ccc3n(C)c2=O)cc1
17 | 3.85 µM |  | Cn1c(=O)c2cc(C(=O)NCc3ccc4c(c3)OCO4)cnc2n(C)c1=O
18 | 0.18 µM |  | Cn1c(=O)c2cc(C(=O)NCc3ccc4c(c3)OCO4)ncc2n(C)c1=O
19 | 0.004 µM |  | COc1ccc(CNC(=O)c2ccc3c(c2)c(=O)n(Cc2ccc(C(=O)O)c(Cl)c2)c(=O)n3C)cc1
20 | 0.001 µM |  | COc1ccc(CNC(=O)c2ccc3c(c2)c(=O)n(Cc2ccc(C(=O)O)c(F)c2)c(=O)n3C)cc1
21 | 0.0016 µM |  | COc1ccc(CNC(=O)c2ccc3c(c2)c(=O)n(Cc2ccc(C(=O)O)c(O)c2)c(=O)n3C)cc1
22 | 0.0045 µM |  | COc1ccc(CNC(=O)c2ccc3c(c2)c(=O)n(Cc2ccc(C(=O)O)c(OC)c2)c(=O)n3C)cc1

Row | IC50 (MMP13 IC50 μM, Table IVb) | IC50 (MMP 13 IC50 μM, Table III) | SMILES
23 | 0.5 µM |  | COc1ccc(CNC(=O)c2ccc3c(c2)c(=O)n(Cc2ccc(C(=O)OCCN(C)C)c(OC)c2)c(=O)n3C)cc1
24 | 0.0018 µM |  | COc1ccc(CNC(=O)c2ccc3c(c2)c(=O)n(Cc2ccc(C(=O)O)c(C)c2)c(=O)n3C)cc1
25 | 1.01 µM |  | C=CCn1c(=O)c2cc(C(=O)NCc3ccc(OC)cc3)ccc2n(C)c1=O
26 | 0.018 µM |  | COc1ccc(CNC(=O)c2ccc3c(c2)c(=O)n(Cc2ccc4nonc4c2)c(=O)n3C)cc1
27 | 0.34 µM |  | Cn1c(=O)n(Cc2ccccc2)c(=O)c2cc(C(=O)NCc3ccc(C#N)cc3)ccc21
28 | 0.026 µM |  | Cn1c(=O)n(Cc2ccccc2)c(=O)c2cc(C(=O)NCCCSc3ccncc3)ccc21
29 | 0.385 µM |  | Cn1c(=O)n(Cc2ccccc2)c(=O)c2cc(C(=O)OC/C=C/c3ccncc3)ccc21
30 | 0.34 µM |  | Cn1c(=O)n(Cc2ccccc2)c(=O)c2cc(C(=O)OC/C=C/c3cccnc3)ccc21
31 | 3.4 µM |  | Cn1c(=O)n(Cc2ccccc2)c(=O)c2cc(C(=O)CSc3ccncc3)ccc21
32 | 1.95 µM |  | COc1ccc(CNC(=O)c2ccc3c(c2)c(=O)n(CC(N)=O)c(=O)n3C)cc1
33 | 0.84 µM |  | COc1ccc(CNC(=O)c2ccc3c(c2)c(=O)n(CCS(=O)(=O)c2ccccc2)c(=O)n3C)cc1
34 | 0.15 µM |  | COc1ccc(CNC(=O)c2ccc3c(c2)c(=O)n(CCOc2ccc(F)cc2)c(=O)n3C)cc1
35 | 0.025 µM |  | COc1ccc(CNC(=O)c2ccc3c(c2)c(=O)n(Cc2ccc(-c4ccccc4C#N)cc2)c(=O)n3C)cc1
36 | 0.017 µM |  | Cn1c(=O)n(Cc2cccc(F)c2)c(=O)c2cc(C(=O)NCc3ccncc3)ccc21
37 | 0.009 µM |  | COc1ccc(CNC(=O)c2ccc3c(c2)c(=O)n(Cc2ccc(NC(C)=O)cc2)c(=O)n3C)cc1
38 | 0.07 µM |  | COc1ccc(CNC(=O)c2ccc3c(c2)c(=O)n(Cc2ccc(CN)cc2)c(=O)n3C)cc1
39 |  | 8 µM | CCOc1ccccc1COC(=O)c1cc2c(=O)n(Cc3ccc(C(=O)O)cc3)c(=O)n(C)c2s1
40 | 0.0011 µM |  | COc1ccc(CNC(=O)c2cc3c(=O)n(Cc4ccc(C#N)cc4)c(=O)n(C)c3cn2)cc1
41 | 0.053 µM |  | Cn1c(=O)n(Cc2ccc(C#N)cc2)c(=O)c2cc(C(=O)NCc3ccncc3)ccc21
42 | 0.028 µM |  | COc1ccc(CNC(=O)c2ccc3c(c2)c(=O)n(Cc2ccc(N(C)C)cc2)c(=O)n3C)cc1
43 | 0.075 µM |  | COc1ccc(CNC(=O)c2ccc3[nH]c(=O)n(Cc4ccc(N(C)C)cc4)c(=O)c3c2)cc1
44 | 0.057 µM |  | Cn1c(=O)n(Cc2ccc(O)cc2)c(=O)c2cc(C(=O)NCc3ccncc3)ccc21

Row | IC50 (MMP13 IC50 μM, Table IVb) | IC50 (MMP 13 IC50 μM, Table III) | SMILES
45 | 0.06 µM |  | COc1ccc(Cn2c(=O)c3cc(C(=O)NCc4ccncc4)ccc3n(C)c2=O)cc1
46 |  | 0.15 µM | COC(=O)CCCCn1c(=O)c2cc(C(=O)OCc3ccccc3)sc2n(C)c1=O
47 | 0.004 µM |  | COc1ccc(CNC(=O)c2ccc3c(c2)c(=O)n(Cc2ccc(NS(C)(=O)=O)cc2)c(=O)n3C)cc1
48 | 0.053 µM |  | COc1ccc(CNC(=O)c2ccc3c(c2)c(=O)n(Cc2ccc(N)nc2)c(=O)n3C)cc1
49 | 0.003 µM |  | CCn1c(=O)n(Cc2ccc(C(=O)O)cc2)c(=O)c2cc(C(=O)NCc3ccc(OC)cc3)ccc21
50 | 0.0057 µM |  | Cn1c(=O)n(Cc2ccc(C(=O)O)cc2)c(=O)c2cc(C(=O)NCc3ccncc3)ccc21
51 | 0.0029 µM |  | CSc1ccc(CNC(=O)c2ccc3c(c2)c(=O)n(Cc2ccc(C(=O)O)cc2)c(=O)n3C)cc1
52 | 0.0011 µM |  | COc1cccc(CNC(=O)c2cc3c(=O)n(Cc4ccc(C(=O)O)cc4)c(=O)n(C)c3cn2)c1
53 | 0.0009 µM |  | COc1cccc(CNC(=O)c2ccc3c(c2)c(=O)n(Cc2ccc(C(=O)O)cc2)c(=O)n3C)c1
54 | 0.0018 µM |  | Cn1c(=O)n(Cc2ccc(C(=O)O)cc2)c(=O)c2cc(C(=O)NCc3ccc(F)cc3)ccc21
55 | 0.11 µM |  | COc1ccc(CNC(=O)c2ccc3c(c2)c(=O)n(Cc2ccc(C(=O)OCCN(C)C)c(C)c2)c(=O)n3C)cc1
56 | 0.00074 µM |  | COc1ccc(CNC(=O)c2cc3c(=O)n(Cc4ccc(C(=O)O)cc4)c(=O)n(C)c3cn2)cc1
57 | 0.0009 µM |  | Cn1c(=O)n(Cc2ccc(C(=O)O)cc2)c(=O)c2cc(C(=O)NCc3ccc4c(c3)OCO4)ccc21
58 | 0.003 µM |  | Cn1c(=O)n(Cc2ccc(C(=O)O)cc2)c(=O)c2cc(C(=O)NCc3ccc4nonc4c3)ccc21
59 | 0.013 µM |  | COc1ccc(CNC(=O)c2ccc3c(c2)c(=O)n(Cc2ccc(-c4ccccc4C(=O)O)cc2)c(=O)n3C)cc1
60 |  | 0.018 µM | COc1ccc(CNC(=O)c2cc3c(=O)n(Cc4ccc5nocc5c4)c(=O)n(C)c3s2)cc1
61 |  | 1.7 µM | COc1cccc(CNC(=O)c2cc3c(=O)n(CS(=O)(=O)Cc4ccccc4)c(=O)n(C)c3s2)c1
62 |  | 0.0505 µM | COc1cccc(CNC(=O)c2cc3c(=O)n(Cc4ccc5cocc5c4)c(=O)n(C)c3s2)c1
63 | 0.009 µM |  | CCOC(=O)c1ccc(Cn2c(=O)c3cc(C(=O)NCc4ccc(OC)cc4)ccc3n(C)c2=O)cc1F
64 | 0.72 µM |  | CCOC(=O)COc1ccc(CNC(=O)c2ccc3c(c2)c(=O)n(Cc2ccccc2)c(=O)n3C)cc1
65 | 0.14 µM |  | COC(=O)c1ccc(Cn2c(=O)c3cc(C(=O)NCc4ccc(OC)cc4)ccc3n(C)c2=O)cc1Cl
66 | 0.0043 µM |  | COC(=O)c1ccc(Cn2c(=O)c3cc(C(=O)NCc4ccc(OC)cc4)ccc3n(C)c2=O)cc1O

Row | IC50 (MMP13 IC50 μM, Table IVb) | IC50 (MMP 13 IC50 μM, Table III) | SMILES
67 | 0.05 µM |  | COC(=O)c1ccc(Cn2c(=O)c3cc(C(=O)NCc4ccc(OC)cc4)ccc3n(C)c2=O)cc1OC
68 | 0.0077 µM |  | COC(=O)c1ccc(Cn2c(=O)c3cc(C(=O)NCc4ccc(OC)cc4)ccc3n(C)c2=O)cc1C
69 | 0.34 µM |  | CCn1c(=O)n(Cc2ccc(C(=O)OC)cc2)c(=O)c2cc(C(=O)NCc3ccc(OC(F)(F)F)cc3)ccc21
70 | 0.031 µM |  | CCn1c(=O)n(Cc2ccc(C(=O)OC)cc2)c(=O)c2cc(C(=O)NCc3ccc(OC)cc3)ccc21
71 | 0.1 µM |  | COC(=O)c1ccc(Cn2c(=O)c3cc(C(=O)NCc4cc[n+]([O-])cc4)ccc3n(C)c2=O)cc1
72 | 0.023 µM |  | COC(=O)c1ccc(Cn2c(=O)c3cc(C(=O)NCc4ccncc4)ccc3n(C)c2=O)cc1
73 | 0.023 µM |  | COC(=O)c1ccc(Cn2c(=O)c3cc(C(=O)NCc4ccc(SC)cc4)ccc3n(C)c2=O)cc1
74 | 0.003 µM |  | COC(=O)c1ccc(Cn2c(=O)c3cc(C(=O)NCc4cccc(OC)c4)ccc3n(C)c2=O)cc1
75 | 0.01 µM |  | COC(=O)c1ccc(Cn2c(=O)c3cc(C(=O)NCc4ccc(F)cc4)ccc3n(C)c2=O)cc1
76 | 0.009 µM |  | COC(=O)c1ccc(Cn2c(=O)[nH]c3ccc(C(=O)NCc4ccc(OC)cc4)cc3c2=O)cc1
77 | 0.0028 µM |  | COC(=O)c1ccc(Cn2c(=O)c3cc(C(=O)NCc4ccc5c(c4)OCO5)ccc3n(C)c2=O)cc1
78 | 0.035 µM |  | COC(=O)c1ccc(Cn2c(=O)c3cc(C(=O)NCc4ccc5nonc5c4)ccc3n(C)c2=O)cc1
79 | 0.084 µM |  | COC(=O)c1ccccc1-c1ccc(Cn2c(=O)c3cc(C(=O)NCc4ccc(OC)cc4)ccc3n(C)c2=O)cc1
80 | 0.02 µM |  | COC(=O)Cc1ccc(Cn2c(=O)c3cc(C(=O)NCc4ccncc4)ccc3n(C)c2=O)cc1
81 | 0.16 µM |  | COC(=O)Cn1c(=O)n(Cc2ccccc2)c(=O)c2cc(C(=O)NCc3ccc4c(c3)OCO4)ccc21
82 | 0.011 µM |  | Cn1c(=O)n(Cc2ccc(CC(=O)O)cc2)c(=O)c2cc(C(=O)NCc3ccncc3)ccc21
83 | 8 µM |  | COc1ccc(CNC(=O)c2ccc3c(c2)c(=O)n(-c2ccc(CC(=O)O)cc2)c(=O)n3C)cc1
84 | 2.9 µM |  | Cn1c(=O)n(Cc2ccccc2)c(=O)c2cc(C(=O)NCc3ccc(OCC(=O)O)cc3)ccc21
85 | 0.105 µM |  | O=C(O)Cn1c(=O)n(Cc2ccccc2)c(=O)c2cc(C(=O)NCc3ccc4c(c3)OCO4)ccc21
86 | 0.015 µM |  | COc1ccc(CNC(=O)c2ccc3c(c2)c(=O)n(Cc2ccc(NC(=O)OC(C)(C)C)nc2)c(=O)n3C)cc1
